Literature values in patent publication US7514574B2, “Biodegradable penetration enhancers with multiple hydrophilic moieties” (priority 2003, dated 2009).

Experiments:
mice = settings: mouse, in vivo, ip
human cadaver skin = settings: tritiated water, Hirvonen et al (1993)

Structure (SMILES) | LD50 (mice) [mg/kg] | increase of skin permeability to T2O (enhanced flux over passive flux) (human cadaver skin) [times]
CCCCCCCCCCCCN1CCCCCC1=O [Azone, 1-dodecylazacycloheptane-2-one] | 232 | 8
CCCCCCCCCCCCOC(=O)CN(C)C [dodedyl, (N,N-dimethyl amino) acetate, dodecyl (N N-dimethyl amino) acetate] | – | 13
